In patent EP0065295A1, “Tryptamine derivatives of thienyloxypropanol amines, process for their preparation, pharmaceutical compositions containing them and preparation of the latter” (HOECHST AKTIENGESELLSCHAFT, priority 1981, dated 1982):

Columns and labels:
[1] = Acute toxicity, LD50 rat i.v.; details: in vivo, iv, read-out: Akute Toxizität LD50 Ratte i.v.
Text: (§1) Die antihypertensive Wirksamkeit der erfindungsgemäßen Verbindungen kann in verschiedenen pharmakolgischen Tests nachgewiesen werden.

[2] = Acute toxicity, LD50 mouse i.v.; details: in vivo, iv, read-out: Akute Toxizität LD50 Maus i.v.
Text: as §1

narkotisierten Hund = experiment: Blood pressure lowering in the anaesthetised dog; type: in vivo; details: narkotisierter Hund; compared with Bucindolol
Text: as §1

wachen Hund = experiment: Blood pressure lowering in the conscious dog; type: in vivo; details: wacher Hund; compared with Bucindolol
Text: as §1

| Structure (SMILES) | LD50 ([1]; Ratte, i.v.) [mg/kg] | LD50 ([2]; Maus, i.v.) [mg/kg] | blutdrucksenkend (narkotisierten Hund) | blutdrucksenkend (wachen Hund) | LD50 [1] [mg/kg] | LD50 [2] [mg/kg] |
| --- | --- | --- | --- | --- | --- | --- |
| CC(C)(Cc1c[nH]c2ccccc12)NCC(O)COc1ccccc1C#N (stereo not drawn) [Bucindolol, 2-<2-Hydroxy-3-<[2-(3-indolyl)-1,1-dimethyläthyl] amino>-propoxy>benzonitril, reference compound] | 20.2 | 9.6 | – | – | – | – |
| CC(C)(Cc1c[nH]c2ccccc12)NCC(O)COc1ccsc1C(N)=O (racemic) [Beispiel 2, 3-<3-[1,1-Dimethyl-2-(indol-3-yl)äthylamino]-2-hydroxy-- propoxy>-thiophen-2-carbonsäureamid] | – | – | ähnlich stark und anhaltend blutdrucksenkend wie das bekannte Bucindolol | ähnlich stark und anhaltend blutdrucksenkend wie das bekannte Bucindolol | 86 | 74 |
